# According to patent publication US6962943B2, “Gabusectin derivatives, processes for preparing them and their use” (Aventis Pharma Deutschland GmbH, priority 2002, dated 2005):
# Tests used:
# [1] = Stability in solution (physicochemical properties); details: for Stability in strongly acidic and strongly alkaline solution: strongly acidic and strongly alkali(ne) solution
# From the text: (§1) Stable in neutral and mildly acidic medium but unstable in strongly acidic and strongly alkali solution. […] Stable in neutral and mildly acidic medium but unstable in strongly acidic and strongly alkaline solution.
# Staphylococcus aureus = test: Agar diffusion test; format: cell-based; details: 37° C., 16 hours
# Protocol: Agar plates containing 2 ml of Staphylococcus aureus inoculum in 200 ml of agar solution were prepared. gabusectin was applied, in a 10 mM solution, to 6 mm-diameter paper disks, which were then laid on the agar plate. The inoculated Staphylococcus plates were incubated at 37° C. for 16 hours. Inhibition halos having the following diameters (mm) were then observed: Agar plates containing 2 ml of Staphylococcus aureus inoculum in 200 ml of agar solution were prepared. gabusectin methyl ester is applied, in a 10 mM solution, to 6 mm-diameter paper disks, which are then laid on the agar plate. The inoculated Staphylococcus plates were incubated at 37° C. for 16 hours. Inhibition halos having the following diameters (mm) were then observed.
# [2] = Solubility (appearance/physicochemical properties)
# From the text: as §1
# S. aureus (SG511) = test: In-vitro antibacterial activity, serial dilution test; format: cell-based; details: Staphylococcus aureus
# From the text: (§2) Table 1 summarizes the minimum inhibitory concentrations (MICs) of gabusectin, by way of example.
# E. faecium (M78L) = test: as above; format: cell-based; details: Enterococcus faecium, read-out: MIC values
# From the text: as §2
# S. aureus (Exp54146) = test: as above; format: cell-based; details: Staphylococcus aureus
# From the text: as §2
# S. pyogenes (A561) = test: as above; format: cell-based; details: Streptococcus pyogenes
# From the text: as §2
# Tolerability = details: at and above its effective concentration
# From the text: Gabusectin is well-tolerated at and above its effective concentration.
# [3] = 10 μL of 10 mM solution on 6 mm paper disk
# [4] = 20 μL of 10 mM solution on 6 mm paper disk
# [5] = 40 μL of 10 mM solution on 6 mm paper disk
Structure (SMILES),Stability in neutral and mildly acidic medium [1],Stability in strongly acidic and strongly alkaline solution [1],Inhibition halo size (Staphylococcus aureus; [3]),Inhibition halo size (Staphylococcus aureus; [4]),Inhibition halo size (Staphylococcus aureus; [5]),Solubility in medium-polar and polar organic solvents [2],Solubility in water [2],MIC (S. aureus (SG511)),MIC (E. faecium (M78L)),MIC (S. aureus (Exp54146)),MIC (S. pyogenes (A561)),Tolerability (Tolerability)
C/C=C/[C@H]1C(C)=C[C@@]2(C)C[C@H](C)CC[C@H]2[C@]1(C)/C(O)=C1\C(=O)C(CCC(=O)OC)N(C)C1=O (stereo partly shown) [gabusectin methyl ester],Stable,unstable,0 mm,7 mm,8 mm,soluble,not particularly soluble,,,,,
C/C=C/C1C(C)=CC2(C)CC(C)CCC2C1(C)/C(O)=C1\C(=O)C(CCC(=O)O)N(C)C1=O (stereo not shown) [gabusectin],Stable,unstable,8 mm,14 mm,17 mm,soluble,not particularly soluble,5 µg/mL,40 µg/mL,20 µg/mL,20 µg/mL,well-tolerated
